Assay results from patent publication US9993515B2 (DSM IP ASSETS B.V., priority 2006, dated 2018).
Where two headings read alike, the source gives them in different places. Residues, ends and D or L forms follow the SMILES beside them.

Key:
[1] = both, human, in vivo
Experimental: The amino acid profiles in plasma were analyzed as described in Example 6 by HPLC according to van Eijk et al (J. Chromatogr. 1993: 620: 143-148).
The aim of the present study was to investigate in healthy volunteers plasma Trp/LNAA profiles and mood after the consumption of different tryptophan containing preparations.
Eighteen healthy students (9 males and 9 females: age between 18-30 years) participated in the study. Exclusion criteria for participation were chronic and current illness, history of psychiatric or medical illness, use of medication or drugs, alcohol consumption (>2 units/day), metabolic-, hormonal- or intestinal diseases and irregular diets or deviant eating habits (assessed by health and life-style questionnaires). Subjects participating in the experiment were in the normal range for the Body-Mass Index (BMI in kg/m^2 between 20-25) and female subjects are matched for contraception. Women participated during their mid-late follicular phase (day 4-10), while women using contraception participated when they actually used the contraception pill. […] All subjects participating in the experiment signed an Informed Consent Form. This study was conducted according to the EC principles of Good Clinical Practice (GCP) adopted by the 52nd WMA General Assembly, Edinburgh, Scotland, October 2000.
Subjects were instructed to fast overnight; only water or tea without sugar was permitted. During five experimental morning sessions, subjects visited the laboratory to monitor plasma Trp/LNAA concentrations and mood following the intake of a drink containing different Trp or LNAA concentrations. The order of presentation of the various drinks was counterbalanced and the four experimental days were separated by a one-week period. On each experimental morning, a 312 ml drink was provided containing different tryptophan (Trp) or LNAA concentrations (Table 1). All drinks contained 0.10 g sweetener (acesulfame) and were filled up with plain water in order to reach 312 mL. A research assistant blind to the dietary conditions conducted the administration of the different drinks.
Blood samples were collected in duplicate before and 15, 30, 60, 90, 120, 180 and 210 minutes after ingestion in 5 ml vacutainer tubes containing sodium heparine and were then centrifuged at 5000 rpm for 5 min at 4° C. The resulting supernatants were mixed with sulfasalicyl acid (4 mg/100 microliter) and directly stored at −80° C. until analysis. Plasma amino acid analysis was conducted with HPLC, making use of a 2-3 μm Bischof Spherisorb ODS II column as described by van Eijk et al (J. Chromatogr. 1993: 620: 143-148). The plasma Trp/LNAA ratios were calculated by dividing the plasma molar tryptophan concentration by the sum of the plasma molar concentrations of the large neutral amino acids valine, isoleucine, leucine, tyrosine and phenylalanine. Statistical analysis took place by means of repeated measures multivariate and univariate analyses of variance (MANOVA and ANOVA) using the General Linear Model (GLM: SPSS 12.0 for Windows). All statistics were evaluated at a significance level of P=0.05.

healthy volunteers = experiment: Profile of Mood States (POMS) after consumption of tryptophan sources (Example 6); assay type: in vivo, human; conditions: for mood changes after the intake (POMS total mood scores): over time after intake
Excerpt: The POMS comprises five different subscales for mood; ranging from Anger, Depression, Fatigue and Tension that refer to a negative mood state, to Vigor concerning a positive mood.

Compound	plasma Trp/LNAA ratio ([1]; 0 min)	plasma Trp/LNAA ratio ([1]; 30 min)	plasma Trp/LNAA ratio ([1]; 60 min)	plasma Trp/LNAA ratio ([1]; 90 min)	plasma Trp/LNAA ratio ([1]; 120 min)	plasma Trp/LNAA ratio ([1]; 180 min)	plasma Trp/LNAA ratio ([1]; 210 min)	mood (POMS total mood scores) (healthy volunteers; 60 min after the intake)	mood changes after the intake (POMS total mood scores) (healthy volunteers)
N[C@@H](Cc1c[nH]c2ccccc12)C(=O)O [TRP, L-tryptophan]	0.11	0.12	0.29	0.31	0.32	0.24	0.20	improvements of mood	–
ALAC: intact alpha-lactalbumin obtained as Biopure (>90% alpha-lactalbumin) from Davisco Foods International	–	–	–	–	–	–	–	–	no mood changes
N[C@@H](CO)C(=O)N[C@@H](Cc1c[nH]c2ccccc12)C(=O)O [SYN, Ser-Trp] (H-Ser-Trp-OH)	–	–	–	–	–	–	–	–	not significant
